In one data set the test system is NCM-460 cell line. As to the kind of experiment: cells. The settings on record: for concentration affecting cell viability: NCM-460, after 24 h. As for the experimental part: (§1) Briefly, cells were firstly seeded, in triplicate, into 96-well culture plates at 10^4 cells/well. […] Ethanol 99.5% was used to solubilize essential oils. The final concentration of ethanol in the cell medium was kept lower than 0.1%. Ethanol 0.1% was added to the control (untreated) cells.
(§2) The cytotoxicity of the essential oil single components was evaluated by MTT assay on 96-well plates. After 24, 48 and 72 h, MTT (dissolved in PBS) was diluted with fresh medium at final concentration of 0.5 mg/mL, added to cell culture and incubated at 37 °C. After 4 h, the medium was removed and 100 μL of DMSO was added. After 1 h at room temperature, the purple formazan crystals were dissolved, and the plates were read in a microplate reader (Victor3™, Perkin Elmer, Waltham, MA, USA). Absorbance was measured at 595 nm. Cell growth inhibition rate was calculated as a percentage of treated cells on control ones.

The next data set deals with Caco-2 cell line. Description: cells. The following applies: for IC50: Caco-2, MTT. Also noted: effect on cell growth, MTT: dose or concentration left out as unconfirmed. As to the method: as §1, §2
For another data set, the system named is SW-620 cell line. As to the kind of experiment: MTT cell viability assay, SW-620. The settings on record: for IC50: SW-620, MTT. As for the experimental part:
Briefly, cells were firstly seeded, in triplicate, into 96-well culture plates at 10^4 cells/well. […] The final concentration of ethanol in the cell medium was kept lower than 0.1%. Ethanol 0.1% was added to the control (untreated) cells.
as §2

The test system of data set [1] is NCM-460 cells. As to the kind of experiment: Cell cycle analysis (propidium iodide, flow cytometry), NCM-460. The following applies: NCM-460, 72 h; 75 µM cinnamaldehyde, 800 µM eugenol; vs control. In kind it is cell-based, human. As to the method:
(§3) Cell cycle analysis and apoptosis detection assay were only performed in cell treated with cinnamaldehyde and eugenol, at dosages that were not found toxic on the NCM-460 cell line. Briefly, 100,000 cells were seeded into 6-well cultured plates and allowed to attach for 24 h. After that, cells were treated for 72 h as previously described. Then, the cells were collected for the cell cycle analysis, washed twice with PBS, fixed with 70% ethanol, and incubated at −20 °C overnight. Then, the cells were washed with 500 µL of PBS, centrifuged at 1500 rpm for 5 min, resuspended in 500 μL of PBS containing 50 μg/mL RNase A and incubated for 30 min at room temperature. Cells were then centrifuged at 1500 rpm for 5 min, resuspended in PBS, and 10 µg/mL of Propidium iodide was added. Detection of apoptotic cells was performed with Annexin V/Propidium iodide detection kit, following the manufacturer’s instructions (Bender Medsystems, Wien, Austria). Cells were analyzed by flow cytometry (FACS) (Cytoflex, Beckman Coulter, CA, USA).

The test system of data set [2] is Caco-2 cells. As to the kind of experiment: Cell cycle analysis (propidium iodide, flow cytometry), Caco-2. The class given is cell-based, human. The following applies: Caco-2, 72 h; 75 µM cinnamaldehyde, 800 µM eugenol; vs control. As for the experimental part: as §3
The test system of data set [3] is SW-620 cells. Description: Cell cycle analysis (propidium iodide, flow cytometry), SW-620. The class given is cell-based, human. The settings on record: SW-620, 72 h; 75 µM cinnamaldehyde, 800 µM eugenol; vs control. As for the experimental part:
as §3

In data set [4] the test system is Caco-2 cells. As to the kind of experiment: in vitro. In kind it is cell-based, human. The settings on record: for cell death, Annexin V/PI: Caco-2, 72 h, 800 µM eugenol, 75 µM cinnamaldehyde. As for the experimental part:
as §3

The test system of data set [5] is NCM-460 cells. As to the kind of experiment: in vitro. The class given is cell-based, human. The following applies: NCM-460, 72 h; 800 µM eugenol, 75 µM cinnamaldehyde. As to the method:
as §3

In data set [6] the test system is SW-620 cells. Description: in vitro. In kind it is cell-based, human. The following applies: for Q2-UL cells (upper left quadrant, necrosis): SW620, 72 h, eugenol 800 µM (E800), cinnamaldehyde 75 µM (A75); for cell death, Annexin V/PI: SW-620, 72 h, 800 µM eugenol, 75 µM cinnamaldehyde. As to the method:
as §3

Data set [7] deals with Caco-2 cells. The settings on record: viability of Caco-2 cells; cited from earlier work.
A further data set can be described thus: in vitro. The class given is cell-based, human. The following applies: human, eugenol 800 µM (E800), cinnamaldehyde 75 µM (A75), read-out: Q2-LL cells (lower left, viable, AnnexinV −/PI −). As to the method:
as §3

[8] abbreviates: Homo sapiens, Caco-2, 24 h, 24 h.
The mark [9] stands for this setting: Homo sapiens, Caco-2, 72 h, 72 h.
The mark [10] stands for this setting: Homo sapiens, SW-620, 24 h, 24 h.
[11] abbreviates: Homo sapiens, SW-620, 72 h, 72 h.
Where [12] appears, read: Caco2, 72 h, eugenol 800 µM (E800), cinnamaldehyde 75 µM (A75).

The values that follow come from publication PMC7914775, “Molecules Present in Plant Essential Oils for Prevention and Treatment of Colorectal Cancer (CRC)” (Molecules, 2021).

Where two headings read alike, the source gives them in different places.

With `O=C/C=C/c1ccccc1` [cinnamaldehyde], the IC50 in the data set on NCM-460 cell line (Homo sapiens, NCM460, 24 h, NCM-460, MTT, 24 h) is 218 µM; in the data set on NCM-460 cell line (Homo sapiens, NCM460, 72 h, NCM-460, MTT, 72 h) it was 83 µM; with NCM-460 cell line (NCM-460, MTT, 24 h) it was 218 µM; in the data set with NCM-460 cell line (NCM-460, MTT, 72 h) it was 83.2 µM; in the data set on Caco-2 cell line (24 h), 166 µM; in the data set with Caco-2 cell line (72 h) it was 86.9 µM. For the same compound, the 50% inhibitory concentration (IC50) in the data set on Caco-2 cell line (setting [8]) is 166 µM; with Caco-2 cell line (setting [9]) it was 87 µM; in the data set with SW-620 cell line (setting [10]), 92 µM; in the data set on SW-620 cell line (setting [11]), 92 µM; in the data set with SW-620 cell line (24 h), 92 µM; in the data set on SW-620 cell line (72 h), 92.1 µM. In addition, the “effect on viability, MTT” value was “reduced viability” with Caco-2 cell line (Caco-2, 75 (µg/mL in the source), 48 and 72 h); “reduced viability” with SW-620 cell line (SW-620, 75 (µg/mL in the source), any timepoint). Further, the “Selectivity Index” value with Caco-2 cell line (IC50 NCM460 / IC50 Caco2, 24 h) worked out at 1.31; in the data set with Caco-2 cell line (IC50 NCM460 / IC50 Caco2, 72 h), 0.96; in the data set with SW-620 cell line (IC50 NCM460 / IC50 SW620, 24 h) it was 2.37; with SW-620 cell line (IC50 NCM460 / IC50 SW620, 72 h), 0.9. The entries for the “effect on cell cycle progression” value in the data set with NCM-460 cells [1], in the data set with Caco-2 cells [2] and in the data set on SW-620 cells [3] were “did not find differences”, “reduction of G2 phase” and “G1 accumulation”, respectively. In addition, the “cell death, Annexin V/PI” value in the data set with Caco-2 cells [4] was “both late apoptosis and necrosis were detected”; with NCM-460 cells [5] it was “did not induce”; in the data set with SW-620 cells [6], “both late apoptosis and necrosis were detected”. Besides, the “Q2-UL cells (upper left quadrant, necrosis)” value in the data set on SW-620 cells [6] was 15.98%.
With `Cc1ccc(C(C)C)c(O)c1` [thymol], the “concentration affecting cell viability” value in the data set with NCM-460 cell line was determined as 165 µM. Further, the “cytotoxic effect, MTT” value in the data set with SW-620 cell line (SW-620, 660 and 1320 µM) was “cytotoxic effect was also detectable”. This compound yielded a toxic concentration in the data set with SW-620 cell line (SW-620, after 24 h) of 660 µM. In addition, the concentration for half-maximal inhibition (IC50) in the data set with Caco-2 cells [7] is 700 µM.
As for `C=CCc1ccc(O)c(OC)c1` [eugenol], the IC50 in the data set with NCM-460 cell line (Homo sapiens, NCM460, 24 h) was 1370 µM; with NCM-460 cell line (Homo sapiens, NCM460, 72 h), 1160 µM; with Caco-2 cell line (24 h), 485 µM; in the data set on Caco-2 cell line (72 h), 730 µM; with Caco-2 cell line (setting [8]), 458 µM; in the data set on Caco-2 cell line (setting [9]) it was 730 µM. Further, the concentration for half-maximal inhibition (IC50) in the data set with SW-620 cell line (setting [10]) is 918 µM; in the data set with SW-620 cell line (setting [11]) it was 866 µM; in the data set with SW-620 cell line (24 h), 918 µM; with SW-620 cell line (72 h) it was 866 µM. For the same compound, the “effect on cell proliferation, MTT” value in the data set on NCM-460 cell line (NCM-460, lower doses from 100 to 400 µM) is listed as “seemed to stimulate”; in the data set on Caco-2 cell line (Caco-2, lower doses from 100 to 400 µM), “seemed to stimulate”. Moreover, the “Selectivity Index” value with Caco-2 cell line (IC50 NCM460 / IC50 Caco2, 24 h) amounted to 2.82; in the data set with Caco-2 cell line (IC50 NCM460 / IC50 Caco2, 72 h) it was 1.60; with SW-620 cell line (IC50 NCM460 / IC50 SW620, 24 h) it was 1.49; with SW-620 cell line (IC50 NCM460 / IC50 SW620, 72 h), 1.34. Further, the “effect on cell cycle progression” value with NCM-460 cells [1] is “did not find differences”; with Caco-2 cells [2], “reduction of G2 phase”; in the data set with SW-620 cells [3], “G1 accumulation”. Besides, the viability at 72 h worked out at 67.5% in “in vitro” (Caco2, 72 h); 95.4% in the data set “in vitro” (NCM460, 72 h); 81.3% in the data set “in vitro” (SW620, 72 h). In addition, the entries for the “Q2-UL cells (upper left quadrant, necrosis)” value in the data set with Caco-2 cells [4] (setting [12]) and in the data set on SW-620 cells [6] were 25.95% and 17.12%, respectively. For the same compound, the “Q2-UR cells (upper right quadrant, late apoptosis)” value with Caco-2 cells [4] (setting [12]) was 5.55%. For the same compound, the “cell death, Annexin V/PI” value is “both late apoptosis and necrosis were detected” in the data set on Caco-2 cells [4]; “did not induce” with NCM-460 cells [5]; “both late apoptosis and necrosis were detected” in the data set with SW-620 cells [6].
Take `Cc1ccc(C(C)C)cc1O` [carvacrol]: the “concentration affecting cell viability” value in the data set with NCM-460 cell line was determined as 500 µM. The “effect on viability, MTT” value in the data set with Caco-2 cell line (Caco-2, same range of concentrations used by Llana-Ruiz-Cabello and co-workers [19]) is reported as “reduced Caco-2 cell viability”. Moreover, the “toxicity, MTT” value in the data set on SW-620 cell line (SW-620, 24 and 48 h, up to the maximum tested concentration of 750 μM) is recorded as “no toxicity”. Also, the “cytotoxic effect, MTT” value in the data set on SW-620 cell line (SW-620, 250, 500 and 750 µM, only after 72 h) is “modest statistically significant toxicity”.
`C=C1CC/C=C(\C)CC[C@@H]2[C@@H]1CC2(C)C` [β-caryophyllene]: the “effect on viability, MTT” value is “affected the viability” with NCM-460 cell line (NCM-460, 240 and 360 µM at 24 h and 120–260 µM at 72 h); “affected the viability” in the data set with SW-620 cell line (SW-620, 260 µM at 24, 48 and 72 h). Further, the “effect on cell growth, MTT” value in the data set on Caco-2 cell line (Caco-2) was “increased cell growth”.
For the compound `CC(C)=CCC/C(C)=C/CO` [Geraniol], the “effect on cell proliferation, MTT” value is on record as “increase cell proliferation” with NCM-460 cell line (NCM-460, 100–800 µM, 48–72 h) and “increase cell proliferation” in the data set with Caco-2 cell line (Caco-2, 100–800 µM, 72 h). In addition, the “cytotoxic effect, MTT” value in the data set on Caco-2 cell line (human, 72 h, 1000 µM) is given as “not on the Caco-2 cells”.
